In general, EC50 refers to the midpoint of the concentration-response curve. The IC50 is the concentration at which inhibition is half-maximal.

Data set [1] deals with SARS-CoV-2 B.1.1.7 lineage. The data set is described as follows: microbe, parasite or virus in culture. It counts as cell-based. The note with it: Severe acute respiratory syndrome coronavirus 2, Table C, SARS-CoV-2 B.1.1.7 in A549-dual_ACE2_TMPRSS2 cells, read-out: A549-dual_ACE2_TMPRSS2 (EC50).
Data set [2] deals with SARS-Cov-2 3CLpro (Severe acute respiratory syndrome coronavirus 2, UniProt P0DTD1). The data set is described as follows: biochemical. The note with it: Table A, read-out: SARS-Cov-2 (IC50).
Data set [3] is described as follows: in vitro. The conditions noted are these: human.

SMILES strings stand for the structures. Like-named read-outs stand apart in the source and are kept apart here.

`C[C@H](NC(=O)C(F)(F)F)C(=O)N[C@@H](CC(C)(C)C)C(=O)N1C[C@@]2(C[C@H]1C#N)Oc1cc(F)cc(F)c1NC2=O` [Compound 68]: in data set [1] (cells given as a bound), the EC50 is over 1 µM. Also, in data set [2] (class symbols), the IC50 lay within 0.02 to 0.2 µM. In addition, the CC50 in data set [3] is over 1 µM.

For the molecule `CC(C)C[C@@H](C(=O)N1CC2(C[C@H]1C#N)C(=O)Nc1ccnn12)N(C)C(=O)[C@H](C)NC(=O)C(F)(F)F` (stereo partly drawn) [Example 7, (2S)—N-[(2S)-1-[(5'S)-5′-cyano-2-oxo-1H-spiro[pyrazolo[1,5-a]imidazole-3,3′-pyrrolidin]-1′-yl]-4-methyl-1-oxopentan-2-yl]-N-methyl-2-(2,2,2-trifluoroacetamido)propanamide], the EC50 in data set [1] (class symbols) fell in the range of 1 to 10 µM. Also, the IC50 in data set [2] (class symbols) fell in the range of 0.02 to 0.2 µM. In data set [3], the CC50 was over 1 µM.

For the molecule `CC([C@H](NC(=O)C(F)(F)F)C(=O)N(C)[C@@H](CC1CC1)C(=O)N1C[C@@]2(C[C@H]1C#N)Oc1cccnc1NC2=O)C(C)(C)C` (stereo partly drawn) [Compound 234], the IC50 in data set [2] (class symbols) is under 0.02 µM.

Consider `CN(C(=O)c1cnc(-c2ccccc2)[nH]1)[C@@H](CC1CC1)C(=O)N1C[C@@]2(C[C@H]1C#N)Oc1cccnc1NC2=O` [Compound 211], for which the EC50 in data set [1] (class symbols) lay in the range of 0.1 to 1 µM. Further, in data set [2] (class symbols), the IC50 lay in the range of 0.02 to 0.2 µM. Besides, the CC50 in data set [3] was over 1 µM.

Take `CN(C(=O)[C@@H](Cc1cccnc1)NC(=O)C(F)(F)F)[C@@H](CC1CC1)C(=O)N1C[C@@]2(C[C@H]1C#N)Oc1cccnc1NC2=O` [Compound 151]: in data set [1] (class symbols), the EC50 was 0.1 to 1 µM. Besides, the IC50 in data set [2] (class symbols) is under 0.02 µM. Moreover, the CC50 in data set [3] is over 1 µM.

As for `C[C@H](NC(=O)C(F)(F)F)C(=O)N[C@@H](CC1CC1)C(=O)N1C[C@@]2(C[C@H]1C#N)Oc1cccnc1NC2=O` [Compound 180], the EC50 in data set [1] (cells given as a bound) is over 1 µM. For the same molecule, the IC50 in data set [2] (class symbols) fell in the range of 0.2 to 2 µM. In data set [3], this molecule showed a CC50 of over 1 µM.

In the case of `CN(C(=O)[C@H](CC1CC1)NC(=O)C(F)(F)Cl)[C@@H](CC1CC1)C(=O)N1C[C@@]2(C[C@H]1C#N)Oc1ncccc1NC2=O` [Compound 238], the IC50 in data set [2] (class symbols) is under 0.02 µM.

In the case of `CC(C)C[C@@H](C(=O)N1C[C@]2(C[C@H]1C#N)C(=O)NC(=O)N2C)N(C)C(=O)[C@H](C)NC(=O)C(F)(F)F` [Compound 10, (S)—N—((S)-1-((5R,8S)-8-cyano-1-methyl-2,4-dioxo-1,3,7-triazaspiro[4.4]nonan-7-yl)-4-methyl-1-oxopentan-2-yl)-N-methyl-2-(2,2,2-trifluoroacetamido)propanamide], the EC50 in data set [1] (class symbols) was 1 to 10 µM. In addition, in data set [2] (class symbols), the IC50 fell in the range of 0.2 to 2 µM. Besides, the CC50 in data set [3] is over 1 µM.

`CC(C)C[C@@H](C(=O)N1C[C@@]2(C[C@H]1C#N)Oc1ccc(F)cc1NC2=O)N(C)C(=O)[C@H](C)NC(=O)C(F)(F)F` [Compound 14a, (S)—N—((S)-1-((2R,5'S)-5′-cyano-6-fluoro-3-oxo-3,4-dihydrospiro[benzo[b][1,4]oxazine-2,3′-pyrrolidin]-1′-yl)-4-methyl-1-oxopentan-2-yl)-N-methyl-2-(2,2,2-trifluoroacetamido)propanamide]: the EC50 in data set [1] (class symbols) lay within 0.1 to 1 µM. Moreover, the CC50 in data set [3] is over 1 µM.

Consider `CN(C(=O)[C@@H]1CC[C@@H](c2ccccc2)N1C)[C@@H](CC1CC1)C(=O)N1C[C@@]2(C[C@H]1C#N)Oc1cc(F)cc(F)c1NC2=O` [Compound 153], for which, in data set [1] (class symbols), the EC50 lay within 0.1 to 1 µM. In addition, the IC50 in data set [2] (class symbols) lay within 0.02 to 0.2 µM. Moreover, the CC50 in data set [3] is over 1 µM.

Regarding `CO[C@H](C)[C@H](NC(=O)C(F)(F)F)C(=O)N(C)[C@@H](CC1CC1)C(=O)N1C[C@@]2(C[C@H]1C#N)Oc1cccnc1NC2=O` [Compound 239], the IC50 in data set [2] (class symbols) was under 0.02 µM.

Turning to `CN(C(=O)[C@@H](Cc1ccncc1)NC(=O)C(F)(F)F)[C@@H](CC1CC1)C(=O)N1C[C@@]2(C[C@H]1C#N)Oc1cccnc1NC2=O` [Compound 148], the EC50 in data set [1] (cells given as a bound) is over 1 µM. In addition, the IC50 in data set [2] (class symbols) was under 0.02 µM. The molecule also yielded a CC50 in data set [3] of over 1 µM.

On to `C[C@H](NC(=O)C(F)(F)F)C(=O)N(C)[C@@H](CC1CC1)C(=O)N1C[C@@]2(C[C@H]1C#N)Oc1c(cccc1OC(F)(F)F)NC2=O` [Compound 235], for which the IC50 in data set [2] (class symbols) is under 0.02 µM.

With `CN(C(=O)[C@H](CC1CC1)NC(=O)C(F)(F)C(F)(F)F)[C@@H](CC1CC1)C(=O)N1C[C@@]2(C[C@H]1C#N)Oc1ccccc1CNC2=O` [Compound 162], the EC50 in data set [1] (class symbols) was under 0.1 µM. In data set [2] (class symbols), the IC50 is under 0.02 µM. Besides, in data set [3], the CC50 was over 1 µM.

Take `CN(C(=O)[C@H](CC1CC1)NC(=O)c1ccc(F)cc1)[C@@H](CC1CC1)C(=O)N1C[C@@]2(C[C@H]1C#N)Oc1ccccc1CNC2=O` [Compound 161]: in data set [1] (class symbols), the EC50 was under 0.1 µM. The IC50 in data set [2] (class symbols) was under 0.02 µM. In addition, the CC50 in data set [3] was over 1 µM.

Regarding `CN(C(=O)[C@@H](NC(=O)C(F)(F)F)C1CCCC1)[C@@H](CC1CC1)C(=O)N1C[C@@]2(C[C@H]1C#N)Oc1cccnc1NC2=O` [Compound 218], the EC50 in data set [1] (class symbols) was under 0.1 µM. The half-maximal inhibitory concentration (IC50) in data set [2] (class symbols) was under 0.02 µM. In data set [3], the CC50 is over 1 µM.

In the case of `C[C@H](NC(=O)C1(C)CCC1)C(=O)N(C)[C@@H](CC1CC1)C(=O)N1C[C@@]2(C[C@H]1C#N)Oc1cccnc1NC2=O` [Compound 212], the EC50 in data set [1] (class symbols) is 0.1 to 1 µM. Further, the IC50 in data set [2] (class symbols) is under 0.02 µM. In addition, the CC50 in data set [3] is over 1 µM.

With `CO[C@H](C)[C@H](NC(=O)C(F)(F)F)C(=O)N(C)[C@@H](CC1CC1)C(=O)N1C[C@@]2(C[C@H]1C#N)Oc1ncccc1NC2=O` [Compound 240], the IC50 in data set [2] (class symbols) was under 0.02 µM.

On to `CC(C)C[C@H](C(=O)N1C[C@@]2(C[C@H]1C#N)Oc1ccc(F)cc1NC2=O)N(C)C(=O)[C@H](C)NC(=O)C(F)(F)F` [Compound 14b, (S)—N—((R)-1-((2R,5'S)-5′-cyano-6-fluoro-3-oxo-3,4-dihydrospiro[benzo[b][1,4]oxazine-2,3′-pyrrolidin]-1′-yl)-4-methyl-1-oxopentan-2-yl)-N-methyl-2-(2,2,2-trifluoroacetamido)propanamide], for which the EC50 in data set [1] (cells given as a bound) was over 1 µM. Besides, in data set [3], the CC50 was over 1 µM.

Regarding `CN(C(=O)[C@@H](NC(=O)C(F)(F)F)C12CC(C1)C2)[C@@H](CC1CC1)C(=O)N1C[C@@]2(C[C@H]1C#N)Oc1cccnc1NC2=O` [Compound 217], in data set [1] (class symbols), the EC50 lay within 0.1 to 1 µM. In addition, in data set [2] (class symbols), the IC50 was under 0.02 µM. This molecule came in with a CC50 in data set [3] of over 1 µM.

Turning to `CN(C(=O)c1nnc(-c2ccccc2)[nH]1)[C@@H](CC1CC1)C(=O)N1C[C@@]2(C[C@H]1C#N)Oc1cccnc1NC2=O` [Compound 210], the EC50 in data set [1] (cells given as a bound) is over 1 µM. Moreover, the IC50 in data set [2] (class symbols) fell in the range of 0.2 to 2 µM. In data set [3], this molecule gave a CC50 of over 1 µM.

Take `CC(C)C[C@@H](C(=O)N1C[C@]2(CC(C(C)C)NC2=O)C[C@H]1C#N)N(C)C(=O)[C@H](C)NC(=O)C(F)(F)F` (stereo partly drawn) [Example 38]: the concentration for a half-maximal effect (EC50) in data set [1] (class symbols) is 0.1 to 1 µM. Also, the IC50 in data set [2] (class symbols) is under 0.02 µM. The molecule also gave a CC50 in data set [3] of over 1 µM.

For `[2H]C([2H])([2H])N(C(=O)[C@H](C)NC(=O)C(F)(F)F)[C@@H](CC(C)C)C(=O)N1C[C@@]2(C[C@H]1C#N)Oc1cc(F)cc(F)c1NC2=O` [Compound 109], the EC50 in data set [1] (class symbols) was 0.1 to 1 µM. In addition, in data set [2] (class symbols), the IC50 is under 0.02 µM. The same molecule showed a CC50 in data set [3] of over 1 µM.

As to `CN(C(=O)[C@H](CC1CC1)NC(=O)C(F)(F)F)[C@@H](CC1CC1)C(=O)N1C[C@@]2(C[C@@H]1C#N)C(=O)NCc1ccccc12` (single isomer, unassigned) [Compound 123], the IC50 in data set [2] (cells given as a bound) is over 2 µM.

As to `CN(C(=O)[C@H](CCCN)NC(=O)C(F)(F)F)[C@@H](CC1CC1)C(=O)N1C[C@@]2(C[C@H]1C#N)Oc1cccnc1NC2=O` [Compound 236], the IC50 in data set [2] (class symbols) is under 0.02 µM.

As for `CC(C)C[C@@H](C(=O)N1CC2(C[C@H]1C#N)Cn1nc(Br)cc1NC2=O)N(C)C(=O)[C@H](C)NC(=O)C(F)(F)F` (stereo partly drawn) [Example 41, (2S)—N-((2S)-1-((5'S)-2-bromo-5′-cyano-5-oxo-4,5-dihydro-7H-spiro[pyrazolo[1,5-a]pyrimidine-6,3′-pyrrolidin]-1′-yl)-4-methyl-1-oxopentan-2-yl)-N-methyl-2-(2,2,2-trifluoroacetamido)propanamide], the EC50 in data set [1] (cells given as a bound) was over 1 µM. Further, the IC50 in data set [2] (class symbols) lay in the range of 0.2 to 2 µM. In data set [3], the CC50 is over 1 µM.

As to `CC(C)C[C@@H](C(=O)N1CC2(C[C@H]1C#N)Cn1nccc1NC2=O)N(C)C(=O)[C@H](C)NC(=O)C(F)(F)F` (stereo partly drawn) [Example 40, (2S)—N-((2S)-1-((5'S)-5′-cyano-5-oxo-4,5-dihydro-7H-spiro[pyrazolo[1,5-a]pyrimidine-6,3′-pyrrolidin]-1′-yl)-4-methyl-1-oxopentan-2-yl)-N-methyl-2-(2,2,2-trifluoroacetamido)propanamide], the EC50 in data set [1] (cells given as a bound) is over 1 µM. For the same molecule, the IC50 in data set [2] (class symbols) was in the range of 0.2 to 2 µM. Further, the CC50 in data set [3] is over 1 µM.

With `CN(C(=O)c1cc2ccccc2c(=O)[nH]1)[C@@H](CC1CC1)C(=O)N1C[C@@]2(C[C@H]1C#N)Oc1cccnc1NC2=O` [Compound 237], the IC50 in data set [2] (class symbols) was 0.2 to 2 µM.

As to `CN(C(=O)[C@H](CC1CC1)NC(=O)C(F)(F)F)[C@@H](CC1CC1)C(=O)N1C[C@@]2(C[C@H]1C#N)Sc1ccccc1NC2=O` [Example 39, (S)—N—((S)-1-((2R,5'S)-5′-cyano-3-oxo-3,4-dihydrospiro[benzo[b][1,4]thiazine-2,3′-pyrrolidin]-1′-yl)-3-cyclopropyl-1-oxopropan-2-yl)-3-cyclopropyl-N-methyl-2-(2,2,2-trifluoroacetamido)propanamide], the EC50 in data set [1] (class symbols) is under 0.1 µM. Also, in data set [2] (class symbols), the IC50 is under 0.02 µM. The same molecule came in with a CC50 in data set [3] of over 1 µM.

`C[C@H](NC(=O)C12CC(C1)C2)C(=O)N(C)[C@@H](CC1CC1)C(=O)N1C[C@@]2(C[C@H]1C#N)Oc1cccnc1NC2=O` [Compound 216]: in data set [1] (class symbols), the EC50 was in the range of 0.1 to 1 µM. Further, the IC50 in data set [2] (class symbols) was under 0.02 µM. Further, the CC50 in data set [3] was over 1 µM.

In the case of `COc1cccc(C[C@@H](NC(=O)C(F)(F)F)C(=O)N(C)[C@@H](CC2CC2)C(=O)N2C[C@@]3(C[C@H]2C#N)Oc2cccnc2NC3=O)c1` [Compound 152], the EC50 in data set [1] (class symbols) is under 0.1 µM. Moreover, the IC50 in data set [2] (class symbols) is under 0.02 µM. In addition, the CC50 in data set [3] was over 1 µM.
